Results from US11179399B2, “6-heterocyclyl-4-morpholin-4-ylpyridine-2-one compounds useful for the treatment of cancer and diabetes” (Sprint Bioscience AB, priority 2016, dated 2021).

Legend:
[1] = system: autophagy in HOS cells (GFP-LC3); assay: High content screening autophagy assay (GFP-LC3 foci); type: cell-based, Human; conditions: Homo sapiens, HOS, 6 h, HOS cells with GFP-LC3, autophagy activated by KU-0063794 500 nM with Bafilomycin A1 5 nM, foci area per cell, read-out: Median IC50 (uM) Cellular assay
Experimental: Human osteosarcoma cells (HOS) stably expressing a Green Fluorescent Protein (GFP) tagged LC3 (GFP-LC3) were used to determine the inhibitory effect on autophagy of proprietary compounds. For that purpose, autophagy was activated by using the mTOR inhibitor KU-0063794 at 500 nM in the presence of Bafilomycin A1 (Sigma-Aldrich) at 5 nM. Shortly, cells were plated overnight in clear bottom 96-well plates in DMEM-High Modified media (Hi-Clone Cat #SH30285.01). At the start of the experiment, the media was removed and replaced with fresh media containing the mTOR inhibitor, Bafilomycin A1 and the vehicle or a test compound as indicated. After 6 hours the media was removed, cells were washed twice with ice-cold phosphate buffered saline (PBS) and fixed with 4% paraformaldehyde for 20 minutes at room temperature. Then the cells were washed twice with ice-cold PBS before adding Hoechst 33342 at 1 μg/ml in PBS for nuclear staining. After incubation overnight at 4° C., cells were washed once with PBS to remove the excess of dye and 100 μl of PBS was added to each well. Images were acquired at 20× magnification, 6 images per well, using the ImageXpress automated microscope (Molecular Devices Inc.) and analyzed with MetaXpress software to identify LC3-GFP foci. Foci area per cell values were used to generate dose response curves and IC50 values were calculated using the non-linear fitting analysis in GraphPad Prism software.

Vps34 enzyme = Vps34 enzyme (Homo sapiens (Human), UniProt Q8NEB9); assay: Vps34 biochemical assay (Adapta kinase assay); conditions: 20 μM ATP and 200 μM PI:PS in substrate mix, 1 h at room temperature, read-out: Median IC50 uM Adapta
Experimental: Dilution series of compounds of the invention were prepared in DMSO at 100 times the final assay concentration (n1=n0/3 in 10 points). The compounds were further diluted to 4 times the assay concentration in assay buffer (Life technologies buffer Q, PV5125, diluted 5 times supplemented with 2 mM DTT and 2 mM MnCl2). 2.5 μl of the diluted compounds were added to a 384 well assay plate followed by 2.5 μl of 16.5 nM Vps34 enzyme (Life technologies, PV5126). Enzyme and compounds were pre-incubated at rt for 15 min. Then 5 μl of substrate mix containing 20 μM ATP (Life technologies, PV3227) and 200 μM PI:PS substrate (Life technologies, PV5122) in assay buffer was added to the wells containing compound and enzyme. Mixing was performed by pipetting several times. The reaction was incubated at room temperature for 1 h. Then 5 μl stop-detection mix, prepared as described in the Adapta kinase assay kit instructions (Life technologies, PV5099) containing Adapta Eu-anti-ADP antibody (2.3 nM), Alexa Fluor 647 ADP tracer (9 nM) and EDTA (30 mM) in TR-FRET buffer, was added to quench the reaction. Mixing was performed by pipetting several times. The assay plate was then incubated at room temperature for 30 min and read with Artemis micro plate reader. Percent inhibition of the compounds as compared to DMSO treated control samples was calculated. By the use of Dotmatics software compound concentration versus percent inhibition was fitted to generate IC50 values.

Vps34 enzyme, sequence (Q8NEB9 whole entry): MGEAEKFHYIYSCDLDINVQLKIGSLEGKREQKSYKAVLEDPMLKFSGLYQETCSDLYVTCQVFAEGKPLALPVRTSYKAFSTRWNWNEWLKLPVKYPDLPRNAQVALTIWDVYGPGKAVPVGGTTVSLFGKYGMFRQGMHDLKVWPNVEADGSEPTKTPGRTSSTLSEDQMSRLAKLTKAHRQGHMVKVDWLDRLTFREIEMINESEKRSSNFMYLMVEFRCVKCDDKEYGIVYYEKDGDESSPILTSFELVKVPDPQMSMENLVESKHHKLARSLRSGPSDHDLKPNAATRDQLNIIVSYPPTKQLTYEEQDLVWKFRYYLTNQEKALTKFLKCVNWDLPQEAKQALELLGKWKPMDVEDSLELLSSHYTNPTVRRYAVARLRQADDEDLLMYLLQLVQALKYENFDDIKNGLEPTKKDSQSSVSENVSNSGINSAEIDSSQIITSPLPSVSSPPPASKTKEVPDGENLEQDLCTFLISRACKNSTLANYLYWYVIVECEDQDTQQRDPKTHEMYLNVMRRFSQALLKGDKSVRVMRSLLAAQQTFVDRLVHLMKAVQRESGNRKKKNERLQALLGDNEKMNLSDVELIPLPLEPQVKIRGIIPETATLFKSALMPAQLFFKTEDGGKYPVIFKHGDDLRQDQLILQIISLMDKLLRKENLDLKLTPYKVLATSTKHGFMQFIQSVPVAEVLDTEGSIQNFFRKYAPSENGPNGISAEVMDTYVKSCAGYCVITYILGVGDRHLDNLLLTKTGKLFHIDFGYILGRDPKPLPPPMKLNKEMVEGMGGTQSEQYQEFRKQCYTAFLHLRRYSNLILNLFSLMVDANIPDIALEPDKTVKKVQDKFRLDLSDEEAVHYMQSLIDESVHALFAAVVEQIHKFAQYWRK

| SMILES | IC50 [1] | IC50 (Vps34 enzyme) |
| --- | --- | --- |
| COc1cccc(C2CCCCN2c2cc(N3CCOC[C@H]3C)cc(=O)[nH]2)c1 (single isomer, unassigned) [Example 44_1] | 0.2 µM | 0.001 µM |
| C[C@@H]1COCCN1c1cc(N2CCOCC2c2ccccc2)[nH]c(=O)c1 (single isomer, unassigned) [Example 26_1] | 0.2 µM | 0.04 µM |
| C[C@@H]1COCCN1c1cc(N2CCCC2c2cccc(C3CC3)c2)[nH]c(=O)c1 (stereo partly drawn) [Example 37, 6-[2-(3-cyclopropylphenyl)pyrrolidin-1-yl]-4-[(3R)-3-methylmorpholin-4-yl]-1H-pyridin-2-one] | 0.3 µM | 0.02 µM |
| CC1COCCN1c1cc(C2CCOCC2)[nH]c(=O)c1 (stereo not shown) [Example 6, 4-(3-methylmorpholin-4-yl)-6-tetrahydropyran-4-yl-1H-pyridin-2-one] | 5 µM | 0.2 µM |
| O=c1cc(N2CCOCC2)cc(N2CCC[C@@H]2c2ccccc2)[nH]1 [Example 4, 4-morpholino-6-[(2R)-2-phenylpyrrolidin-1-yl]-1H-pyridin-2-one] | 9 µM | 0.05 µM |
| O=c1cc(N2CCOCC2)cc(N2CCC[C@H]2c2ccccc2)[nH]1 [Example 3, 4-morpholino-6-[(2S)-2-phenylpyrrolidin-1-yl]-1H-pyridin-2-one] | 13 µM | 0.2 µM |
| C[C@@H]1COCCN1c1cc(N2CCCCC2C(F)(F)F)[nH]c(=O)c1 (single isomer, unassigned) [Example 25_1] | 0.03 µM | 0.002 µM |
| CC1COCCN1c1cc(N2CCCC2c2cccnc2)[nH]c(=O)c1 (stereo not shown) [Example 8, 4-(3-methylmorpholin-4-yl)-6-[2-(3-pyridyl)pyrrolidin-1-yl]-1H-pyridin-2-one] | 10 µM | 0.05 µM |
| C[C@@H]1COCCN1c1cc(N2CCCC[C@@H]2c2ccccc2)[nH]c(=O)c1 [Example 30, 4-[(3R)-3-methylmorpholin-4-yl]-6-[(2R)-2-phenyl-1-piperidyl]-1H-pyridin-2-one] | 0.6 µM | 0.008 µM |
| C[C@@H]1COCCN1c1cc(N2CCCC[C@@H]2C(F)(F)F)n(C)c(=O)c1 [Example 41, 1-methyl-4-[(3R)-3-methylmorpholin-4-yl]-6-[(2R)-2-(trifluoromethyl)-1-piperidyl]pyridin-2-one] | 0.08 µM | 0.01 µM |
| CC1COCCN1c1cc(N2CCOC[C@H]2C)cc(=O)[nH]1 (single isomer, unassigned) [Example 24_1] | 1.4 µM | 0.01 µM |
| CC1COCCN1c1cc(C2=CCOCC2)[nH]c(=O)c1 (stereo not shown) [Example 5, 6-(3,6-dihydro-2H-pyran-4-yl)-4-(3-methylmorpholin-4-yl)-1H-pyridin-2-one] | 15 µM | 0.2 µM |
| C[C@@H]1COCCN1c1cc(N2CCCC2c2cccc(C(F)(F)F)c2)[nH]c(=O)c1 (mixture of isomers) [Example 16, (R) and (S) 4-[(3R)-3-methylmorpholin-4-yl]-6-[2-[3-(trifluoromethyl)phenyl]pyrrolidin-1-yl]-1H-pyridin-2-one] | 0.3 µM | 0.04 µM |
| COc1cccc(C2CCCCN2c2cc(N3CCOC[C@H]3C)cc(=O)[nH]2)c1 (single isomer, unassigned) [Example 44_2] | – | 0.006 µM |
| C[C@@H]1COCCN1c1cc(N2CCC[C@H]2C(F)(F)F)[nH]c(=O)c1 [Example 34, 4-[(3R)-3-methylmorpholin-4-yl]-6-[(2S)-2-(trifluoromethyl)pyrrolidin-1-yl]-1H-pyridin-2-one] | – | 0.1 µM |
| C[C@@H]1COCCN1c1cc(N2CCCC2c2nccs2)[nH]c(=O)c1 (mixture of isomers) [Example 39, (R) and (S) 4-[(3R)-3-methylmorpholin-4-yl]-6-(2-thiazol-2-ylpyrrolidin-1-yl)-1H-pyridin-2-one] | – | 0.05 µM |
| COc1cccc(C2CCCN2c2cc(N3CCOC[C@H]3C)cc(=O)[nH]2)c1 (single isomer, unassigned) [Example 17_1] | – | 0.02 µM |
| C[C@@H]1COCCN1c1cc(N2CCOCC23CCC3)[nH]c(=O)c1 [Example 42, 4-[(3R)-3-methylmorpholin-4-yl]-6-(8-oxa-5-azaspiro[3.5]nonan-5-yl)-1H-pyridin-2-one] | – | 0.03 µM |

| SMILES | IC50 [1] | IC50 (Vps34 enzyme) |
| --- | --- | --- |
| C[C@@H]1COCCN1c1cc(N2CCS(=O)(=O)CC2)[nH]c(=O)c1 [Example 28, 6-(1,1-dioxo-1,4-thiazinan-4-yl)-4-[(3R)-3-methylmorpholin-4-yl]-1H-pyridin-2-one] | – | 0.4 µM |
| COC(C)(C)C1CCCN1c1cc(N2CCOC[C@H]2C)cc(=O)[nH]1 (single isomer, unassigned) [Example 11_2] | – | 0.3 µM |
| C[C@@H]1COCCN1c1cc(N2CCCC2C2CCCCC2)[nH]c(=O)c1 (mixture of isomers) [Example 12, (R) and (S) 6-(2-cyclohexylpyrrolidin-1-yl)-4-[(3R)-3-methylmorpholin-4-yl]-1H-pyridin-2-one] | – | 0.09 µM |
| COC(C)(C)C1CCCN1c1cc(N2CCOC[C@H]2C)cc(=O)[nH]1 (single isomer, unassigned) [Example 11_1] | – | 0.2 µM |
| C[C@@H]1COCCN1c1cc(N2CCCC2c2cccc(OC(F)(F)F)c2)[nH]c(=O)c1 (mixture of isomers) [Example 15, (R) and (S) 4-[(3R)-3-methylmorpholin-4-yl]-6-[2-[3-(trifluoromethoxy)phenyl]pyrrolidin-1-yl]-1H-pyridin-2-one] | – | 0.06 µM |
| CCn1ccc(C2CCCN2c2cc(N3CCOC[C@H]3C)cc(=O)[nH]2)n1 (single isomer, unassigned) [Example 21_2] | – | 0.3 µM |
| CCn1ccc(C2CCCN2c2cc(N3CCOC[C@H]3C)cc(=O)[nH]2)n1 (single isomer, unassigned) [Example 21_1] | – | 0.1 µM |
| C[C@@H]1COCCN1c1cc(N2CCCC2c2cc(F)ccc2F)[nH]c(=O)c1 (single isomer, unassigned) [Example 14_1] | – | 0.02 µM |
| Cc1ccc(C2CCCN2c2cc(N3CCOC[C@H]3C)cc(=O)[nH]2)o1 (single isomer, unassigned) [Example 22_2] | – | 0.1 µM |
| C[C@@H]1COCCN1c1cc(N2CCCC2c2ccccc2)[nH]c(=O)c1 (single isomer, unassigned) [Example 18_1] | – | 0.07 µM |
| C[C@@H]1COCCN1c1cc(N2CCCC2c2cnn(C)c2)[nH]c(=O)c1 (mixture of isomers) [Example 19, (R) and (S) 4-[(3R)-3-methylmorpholin-4-yl]-6-[2-(1-methylpyrazol-4-yl)pyrrolidin-1-yl]-1H-pyridin-2-one] | – | 0.1 µM |
| C[C@@H]1COCCN1c1cc(N2CCN(C(=O)c3cncc(F)c3)CC2C(F)(F)F)[nH]c(=O)c1 (stereo partly drawn) [Example 46, 6-[4-(5-fluoropyridine-3-carbonyl)-2-(trifluoromethyl)piperazin-1-yl]-4-[(3R)-3-methylmorpholin-4-yl]-1H-pyridin-2-one] | – | 0.005 µM |
| C[C@@H]1COCCN1c1cc(N2CC[S+]([O-])CC2)[nH]c(=O)c1 [Example 27, 4-[(3R)-3-methylmorpholin-4-yl]-6-(1-oxo-1,4-thiazinan-4-yl)-1H-pyridin-2-one] | – | 0.4 µM |
| C[C@@H]1COCCN1c1cc(N2CCN(C(=O)C3CCCO3)CC2C(F)(F)F)[nH]c(=O)c1 (single isomer, unassigned) [Example 48_1] | – | 0.01 µM |
| CC(=O)N1CCN(c2cc(N3CCOC[C@H]3C)cc(=O)[nH]2)CC1 [Example 29, 6-(4-acetylpiperazin-1-yl)-4-[(3R)-3-methylmorpholin-4-yl]-1H-pyridin-2-one] | – | 0.2 µM |
| C[C@@H]1COCCN1c1cc(N2CCN(C)CC2C(F)(F)F)[nH]c(=O)c1 (stereo partly drawn) [Example 49, 4-[(3R)-3-methylmorpholin-4-yl]-6-[4-methyl-2-(trifluoromethyl)piperazin-1-yl]-1H-pyridin-2-one] | – | 0.03 µM |
| C[C@@H]1COCCN1c1cc(N2CCCC2c2cc(F)ccc2F)[nH]c(=O)c1 (single isomer, unassigned) [Example 14_2] | – | 0.05 µM |
| C[C@@H]1COCCN1c1cc(N2CCCC2C2CCCCC2)[nH]c(=O)c1 (single isomer, unassigned) [Example 12_1] | – | 0.2 µM |
